Source: PMC10199925, “Cyclodextrin carboxylate improves the stability and activity of nisin in a wider range of application conditions” (NPJ Science of Food, 2023)
Where no end group is shown, it is not given here. [ ]: non-standard residue; d: D form. Dhb = C/C=C(\N)C(=O)O; Dha = C=C(N)C(=O)O

Tests used:
[1] = Thermogravimetric analysis (TG/dTG); type: physicochemical; details: dry powder, N2 50 mL/min, 10 °C/min, 30 to 600 °C
Experimental: The thermal behavior of the nisin-SACD complexes was evaluated using a thermogravimetric (TG) analysis system (TGA2, Mettler–Toledo, Schwerzenbach, Switzerland) under N2 (50 mL/min) at a 10 °C/min heating rate over a temperature range from 30 to 600 °C.

[2] = tested on: S. aureus; test: MIC by broth microdilution; type: cell-based; details: nisin 3.125-400 µg/mL, SACD 0.3125-40 mg/mL, 37 °C, 24 h, result in words
Experimental: (§1) After confirming the antibacterial activity of nisin-SACD complexes, the MIC of nisin-SACD complexes was further measured by the broth microdilution method as reported by Li et al.. […] The initial solutions were then serially diluted until the concentration of them reached 3.125 µg/mL, 0.3125 mg/mL, 0.3125 mg/mL, and 0.3125 mg/mL, respectively. 100 µL of the samples at different concentrations were then cultured with 100 µL S. aureus dilutions containing 10^6 CFU bacteria in 96-well plates. The plates were incubated at 37 °C for 24 h. […] S aureus treated with nisin-SACD and HSS-nisin-SACD at MIC were further stained using a live/dead bacterial double stain kit (LMAI Bio, China), and the number of the total bacteria and dead bacteria could be represented by the fluorescence intensity value directly. Note there is no statistical relationship between the fluorescence intensity of the total bacteria and the dead bacteria, since they are stained by two different fluorescent dyes.

[3] = tested on: S. aureus (ATCC 6538); test: Antibacterial activity by optical density (OD600) of bacterial culture; type: cell-based
Experimental: The antimicrobial activities of the samples were determined using S. aureus (ATCC 6538) as a representative Gram-positive bacterium. The optical density (OD) was used to assess the antibacterial activity of the nisin and the nisin-SACD complexes[41],[42]. The bacteria were precultured on Luria-Bertani media at 37 °C for 24 h to obtain seed cultures. These seed cultures were then diluted to 10^6 CFU using Luria-Bertani media. […] A bacteria culture containing no sample was used as a blank control group. After incubating at 37 °C for 24 h, the growth of bacteria in the culture media was determined by recording the OD at 600 nm (OD600) using an UV-visible spectrophotometer (UV–1800PC, Mapada, China).

[4] = tested on: S. aureus; test: Live/dead bacterial double stain fluorescence intensity; type: cell-based; details: complexes at their MIC levels, result in words
Experimental: as §1

[5] = tested on: S. aureus; details: pure SACD at a relatively high dose; result in words; cited from earlier work
From the text: S. aureus is commonly used as model Gram-positive bacteria to predict the antibacterial effects of the bacteriostatic agent. Meanwhile, it is a significant cause of foodborne illness leading to gastroenteritis, diarrhea, and vomiting. Foods susceptible to S. aureus intoxication including meat, egg, and dairy products. It is known that nisin can deactivate bacteria by adsorbing to the cell membrane, disrupting the cell membrane, and promoting the loss of essential int ...

Row | Substance | maximum decomposition peak temperature (dTG) [1] [°C] | weight loss at the end of heating (TG) [1] [%] | antibacterial effects at the setting concentration range (MIC test) [2] | OD600 value of the bacterial suspension after treatment ([3]; 1 mg nisin or 50 mg nisin-SACD (containing 1 mg nisin) in 10 mL culture (10^6 CFU), LB media, 37 °C, 24 h, blank OD600 1.23, n = 3) | fold decrease of OD600 versus untreated culture ([3]; as for OD600, relative to blank 1.23) [fold] | total and dead bacteria (fluorescence intensity) in comparison to the untreated group [4] | antibacterial activity against S. aureus [5]
1 | Nisin (I[Dhb]SI[Dha]LCTPGCKTGALMGCNMKTATCHCSIHV[Dha]K; thioether (positions not given here); not fully specified (residues 3, 8, 13, 23, 25, bridges); UniProt P13068 24-57, looked up) [natural bacteriocin, small peptide of 34 amino acid residues produced by Lactococcus lactis; purchased from Aladdin] | 333 | < 7 | no significant antibacterial effects | 0.46 | 2.7 | Certain degree of inhibition on bacteria proliferation | –
2 | succinic acid-β-cyclodextrin [SACD] | – | – | no significant antibacterial effects | – | – | Certain degree of inhibition on bacteria proliferation | did show antibacterial activity
